Measurements from paper PMC6420870 (Neuropharmacology, 2019).

Assays:
Format in all cases: cell-based
[1] = target: T1, rat mGlu5 (HEK293A-rat mGlu5-low) (Rattus norvegicus, UniProt P31424); test: [3H]methoxy-PEPy inhibition binding, intact adherent cells
[2] = target: T1, rat mGlu5 (HEK293A-rat mGlu5-low); test: IP1 accumulation
[3] = target: T1, rat mGlu5 (HEK293A-rat mGlu5-low); test: radioligand binding, intact adherent cells; settings: labelled compound, ~2 nM, RT, 1 h, pH 7.4; allosteric site

T1 sequence (P31424 21-1203): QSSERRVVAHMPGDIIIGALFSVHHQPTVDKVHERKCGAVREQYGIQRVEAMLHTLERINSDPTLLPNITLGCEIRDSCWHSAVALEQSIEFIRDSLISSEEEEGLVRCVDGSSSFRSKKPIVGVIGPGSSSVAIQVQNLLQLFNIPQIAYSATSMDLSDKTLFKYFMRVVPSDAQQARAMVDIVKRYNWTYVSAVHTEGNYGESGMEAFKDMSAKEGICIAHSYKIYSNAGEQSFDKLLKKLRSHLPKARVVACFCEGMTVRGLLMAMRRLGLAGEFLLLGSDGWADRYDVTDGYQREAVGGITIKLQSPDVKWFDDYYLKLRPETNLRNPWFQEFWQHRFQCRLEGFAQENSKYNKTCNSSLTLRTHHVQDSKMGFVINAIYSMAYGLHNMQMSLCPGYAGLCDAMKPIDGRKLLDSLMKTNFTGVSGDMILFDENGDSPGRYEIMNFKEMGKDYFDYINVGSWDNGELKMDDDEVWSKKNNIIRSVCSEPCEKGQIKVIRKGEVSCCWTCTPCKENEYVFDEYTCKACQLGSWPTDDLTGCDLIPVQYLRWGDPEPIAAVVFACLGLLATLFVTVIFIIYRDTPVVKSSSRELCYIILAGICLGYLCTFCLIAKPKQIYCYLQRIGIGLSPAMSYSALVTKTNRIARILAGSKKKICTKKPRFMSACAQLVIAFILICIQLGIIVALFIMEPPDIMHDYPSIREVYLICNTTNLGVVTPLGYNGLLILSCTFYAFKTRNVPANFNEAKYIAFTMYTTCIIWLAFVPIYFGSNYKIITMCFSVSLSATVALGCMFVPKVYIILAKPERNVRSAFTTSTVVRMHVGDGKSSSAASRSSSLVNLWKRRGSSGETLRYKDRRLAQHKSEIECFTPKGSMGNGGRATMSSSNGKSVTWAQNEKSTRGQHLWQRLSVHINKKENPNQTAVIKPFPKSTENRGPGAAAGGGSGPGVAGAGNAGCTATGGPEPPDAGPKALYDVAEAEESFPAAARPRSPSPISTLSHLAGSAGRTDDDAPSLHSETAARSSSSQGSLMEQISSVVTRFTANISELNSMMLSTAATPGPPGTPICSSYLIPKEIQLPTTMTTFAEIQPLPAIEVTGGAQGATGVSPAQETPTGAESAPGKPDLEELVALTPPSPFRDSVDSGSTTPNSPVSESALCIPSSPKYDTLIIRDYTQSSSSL

| Compound | Ki [1] | IC50 [2] | radioligand binding, intact adherent cells [3] |
| --- | --- | --- | --- |
| COc1cccc(C#Cc2ccc(C)cn2)c1 [M-5MPEP, 2-[2-(3-methoxyphenyl)ethynyl]-5-methylpyridine] | 74.1 nM | 295 nM | – |
| N#Cc1cnc(Nc2nc3ccccc3o2)nc1-c1ccc(F)cc1 [VU0366058, 2-(1,3-benzoxazol-2-ylamino)-4-(4-fluorophenyl)pyrimidine-5-carbonitrile] | 55 nM | 105 nM | – |
| N#Cc1cc(F)cc(C(=O)Nc2cccc(Cl)c2F)c1 [VU0366248, N-(3-chloro-2-fluorophenyl)-3-cyano-5-fluorobenzamide] | 115 nM | 331 nM | – |
| COc1cncc(C#Cc2ccccn2)c1 [[^3H]methoxy-PEPy] | – | – | inhibition of [^3H]methoxy-PEPy binding was determined in HEK293A-rat mGlu5-low cells |
| Fc1ccc2nc(CCC#Cc3ccccn3)cn2c1 [dipraglurant, 6-fluoro-2-[4-(2-pyridinyl)-3-butyn-1-yl]-Imidazo[1,2-a]pyridine] | 49 nM | 43.7 nM | – |
| CN1CC(=O)N=C1NC(=O)Nc1cccc(Cl)c1 [fenobam, 1-(3-chlorophenyl)-3-[(2e)-1-methyl-4-oxoimidazolidin-2-ylidene]urea] | 70.8 nM | 148 nM | – |
